ChEMBL document CHEMBL1201862, “PubChem BioAssay data set” (2004)
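Exposure lasted 48 hours, with cells grown in 96-well plates and compounds tested at five concentrations. The concentration for 50% growth inhibition is given as GI50.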 Activity calls are given as the source filed them. No stated cut-off is given here; in the data, active = GI50 up to about 1.1 µM and inactive = higher.

Key:
Experiment in all cases: NCI anticancer screen, dose series, 48 h
[1] = tested on: SK-MEL-2
[2] = tested on: EKVX
[3] = tested on: A549
[4] = tested on: OVCAR-3
[5] = tested on: NCI-H460
[6] = tested on: NCI-H23
[7] = tested on: K562
[8] = tested on: OVCAR-8
[9] = tested on: CAKI-1
[10] = tested on: SF-295
[11] = tested on: OVCAR-5
[12] = tested on: HOP-18
[13] = tested on: SR
[14] = tested on: MOLT-4
[15] = tested on: SN12C
[16] = tested on: TK-10
[17] = tested on: RPMI-8226

Measured: GI50

Cc1cc2c(ccc3c(C)cc(=O)oc32)o1
inactive: [1] > 100 µM | [2] > 100 µM | [3] > 100 µM | [4] > 100 µM | [5] > 100 µM | [6] > 100 µM | [7] > 100 µM | [8] > 100 µM | [9] > 100 µM | [10] > 100 µM | [11] > 100 µM | [12] > 55.6 µM | [13] > 100 µM | [14] > 100 µM | [15] > 100 µM | [16] > 100 µM | [17] > 100 µM

Clc1ccc(Nc2nc3ccccc3nc2-c2cccs2)cc1Cl
inactive: [1] > 100 µM | [2] 69.5 µM | [3] 29.9 µM | [4] > 100 µM | [5] 22.7 µM | [6] 37.8 µM | [8] 19.7 µM | [10] 40.4 µM | [11] > 100 µM | [12] 97.5 µM | [13] 22.8 µM | [14] 14.8 µM | [15] 89.9 µM | [16] 42.1 µM | [17] 45.2 µM

NC1=NN(c2ccccc2)C(=O)C1C(=O)C(=O)Nc1ccc(Cl)c(Cl)c1 (centres undefined)
inactive: [1] > 100 µM | [2] > 100 µM | [3] > 100 µM | [4] > 100 µM | [5] > 100 µM | [6] > 100 µM | [7] 32 µM | [8] > 100 µM | [9] 55.3 µM | [10] > 100 µM | [11] > 100 µM | [12] > 100 µM | [13] > 100 µM | [14] > 100 µM | [15] > 100 µM | [16] > 100 µM | [17] > 100 µM

Cc1c2ccccc2c(=O)n2c(-c3ccccn3)cccc12
inactive: [1] > 100 µM | [2] > 100 µM | [3] > 100 µM | [4] 97.1 µM | [5] > 100 µM | [6] > 100 µM | [7] > 100 µM | [8] > 100 µM | [9] > 100 µM | [10] > 100 µM | [11] > 10 µM | [12] > 100 µM | [13] 54 µM | [14] 79.8 µM | [15] > 100 µM | [16] > 100 µM | [17] > 100 µM

CCN(CC)C(=O)Cc1c(C(=O)N(CC)CC)c(=O)nc2sccn12
inactive: [1] > 100 µM | [2] > 100 µM | [3] > 100 µM | [4] > 100 µM | [5] > 100 µM | [6] > 100 µM | [7] > 100 µM | [8] > 100 µM | [10] > 100 µM | [12] > 100 µM | [13] > 100 µM | [14] > 100 µM | [15] > 100 µM | [16] > 100 µM | [17] > 100 µM

CC1(c2ccccc2)CC(c2cccc([N+](=O)[O-])c2)=NO1 (centres undefined)
inactive: [1] > 100 µM | [3] > 100 µM | [4] > 100 µM | [5] > 100 µM | [6] 89.1 µM | [8] > 100 µM | [10] 47.8 µM | [11] > 100 µM | [12] > 100 µM | [13] > 100 µM | [14] 56.2 µM | [15] > 100 µM | [16] > 100 µM | [17] 51.3 µM

C=CCC1C(=O)CC2(C)C(CC=C)C(=O)CC12C (centres undefined)
inactive: [1] > 100 µM | [2] > 100 µM | [3] > 100 µM | [4] > 100 µM | [5] > 100 µM | [6] > 100 µM | [7] > 100 µM | [8] > 100 µM | [9] > 100 µM | [10] > 100 µM | [11] > 100 µM | [12] > 100 µM | [13] > 100 µM | [14] > 100 µM | [15] > 100 µM | [16] > 100 µM | [17] > 100 µM

COc1ccc2ccnc(Cc3ccc(OCc4ccccc4)c(OC)c3)c2c1
inactive: [1] 20.7 µM | [2] 17.9 µM | [3] 24.4 µM | [4] 17.1 µM | [5] 18.9 µM | [6] 19.8 µM | [7] 31 µM | [8] 19.1 µM | [9] 29.2 µM | [10] 26.4 µM | [11] 40.3 µM | [12] 16.6 µM | [14] 17.6 µM | [15] 14.2 µM | [16] 27.9 µM | [17] 16.2 µM

c1ccc2c(NCCCCCCNc3cccc4ccccc34)cccc2c1
inactive: [1] > 100 µM | [2] > 100 µM | [3] 42 µM | [4] > 100 µM | [5] > 100 µM | [6] 75.3 µM | [7] > 100 µM | [8] > 100 µM | [9] > 100 µM | [10] > 100 µM | [11] > 100 µM | [12] > 100 µM | [14] 44.3 µM | [15] > 100 µM | [16] > 100 µM | [17] 87.3 µM
